Test results published in article PMC10165273, “Itch receptor MRGPRX4 interacts with the receptor activity–modifying proteins” (The Journal of Biological Chemistry, 2023).
Where “and” joins values, the source holds several entries; their conditions need not be identical. Identical values can stand only once. Like-named read-outs stand apart in the source and are kept apart here.

Biological target: T1, MRGPRX4 + RAMP2 (Homo sapiens, UniProt Q96LA9)
T1 construct: expressed in transfected cells; host or cells: HEK293T
T1 sequence (Q96LA9 whole entry): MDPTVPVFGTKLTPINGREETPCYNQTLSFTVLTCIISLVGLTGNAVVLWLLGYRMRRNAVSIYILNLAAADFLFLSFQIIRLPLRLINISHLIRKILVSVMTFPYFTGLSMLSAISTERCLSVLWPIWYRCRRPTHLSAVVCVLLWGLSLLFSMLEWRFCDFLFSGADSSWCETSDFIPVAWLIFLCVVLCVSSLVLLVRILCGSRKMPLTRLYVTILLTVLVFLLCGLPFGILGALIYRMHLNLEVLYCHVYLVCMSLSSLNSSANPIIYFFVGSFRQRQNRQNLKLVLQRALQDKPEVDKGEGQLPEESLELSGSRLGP
Test: IP1 accumulation, MRGPRX4 coexpressed with RAMP2
Assay type: cell-based
Set-up: key to response to agonist, X4:ramp2.I:2: % IP1: mock-transfected unstimulated = 0%, fully stimulated MRGPRX4 = 100%; key to IP1 Basal / response to agonist, X4:ramp2.I:0.25 / response to agonist, X4:ramp2.I:0.5 / response to agonist, X4:ramp2.I:1: % IP1; unstimulated mock = 0%, fully stimulated MRGPRX4 = 100%
Conditions: for Emax: read-out: IP1 Emax; for IP1 accumulation (normalized): MRGPRX4+RAMP2 1pg 1:1, Supplementary Figure 5e, 5g
Procedure: HEK293T cells were transfected with 1 pg/cell of MRGPRX4 DNA, and the amount of DNA was kept constant at 2 pg/cell with pcDNA3.1(+) empty vector, unless otherwise specified. Twenty four hours after transfection, IP1 assay was performed as previously described ([51]). When applicable, cells were treated with 1 μM YM254890 (YM) or different concentrations of U73122 for 1 h prior to addition of agonist or buffer. After incubation for 2 h, HTRF reagents and IP1 calibration standards were added and incubated for 2 h in the dark at room temperature. Time-resolved fluorescence signals were read on the BioTek Synergy NEO-TRF Hybrid multi-mode reader (BioTek Instruments). All data were carried out in three independent experiments with three technical replicate each.
For RAMP DNA titration assay, HEK293T cells were cotransfected with a constant amount of 1 pg/cell of FLAG-MRGPRX4-GFP10-1D4 to which a serial dilution of 1, 0.75, 0.5, 0.25, or 0 pg/cell of each HA-RAMP-OLLAS was added. For a homogenous transfection of MRGPRX4, a master mix of MRGPRX4 DNA was made prior to addition of the RAMP DNA. […]
Data reduction, standard calibration, and transformation of HTRF data were performed as previously described ([51]). Normalized IP1 values were calculated relative to the unstimulated mock-transfected cells (set to 0%) and fully stimulated MRGPRX4 (alone if applicable) (set to 100%).

[1] = MRGPRX4 + RAMP2 0.25 pg (Fig. S3), normalized per agonist
[2] = MRGPRX4 + RAMP2 0.5 pg (Fig. S3), normalized per agonist
[3] = MRGPRX4 + RAMP2 1 pg (Fig. S3), normalized per agonist
[4] = MRGPRX4 + RAMP2 2 pg (Fig. S3), normalized per agonist
[5] = Tet-On MRGPRX4:RAMP2 Ratio 1:0.5 (Fig. S5E)
[6] = Tet-On MRGPRX4:RAMP2 Ratio 1:0.75 (Fig. S5E)
[7] = Tet-On MRGPRX4:RAMP2 Ratio 1:1 (Fig. S5E)

For `CC(C)[C@H]1CC[C@H](C(=O)N[C@H](Cc2ccccc2)C(=O)O)CC1` [Nateglinide], the EC50 (Figure 4a top, DNA ratio MRGPRX4:RAMP2 1:0.25, individual replicates, read-out: potency (converted)) was 9.57 µM and 9.23 µM (2×), the EC50 (Figure 4a top, DNA ratio MRGPRX4:RAMP2 1:0.5, individual replicates, read-out: potency (converted)) was 15.1 µM and 11.3 µM and 13.1 µM and the EC50 (Figure 4a top, DNA ratio MRGPRX4:RAMP2 1:0.75, individual replicates, read-out: potency (converted)) was 15.4 µM and 13.9 µM and 10.4 µM. For the same compound, the EC50 (Figure 4a top, DNA ratio MRGPRX4:RAMP2 1:1, individual replicates, read-out: potency (converted)) was 39.9 µM and 19.4 µM and 24.3 µM, the “response to agonist, X4:ramp2.I:0.25” value (Figure 4c-f, agonist 100µM, X4:ramp2 1:0.25, MRGPRX4 = 100) was 71.8475 and 74.3589 and the “response to agonist, X4:ramp2.I:0.5” value (Figure 4c-f, agonist 100µM, X4:ramp2 1:0.5, MRGPRX4 = 100) was 61.7207 and 60.1764. For the same compound, the “response to agonist, X4:ramp2.I:1” value (Figure 4c-f, agonist 100µM, X4:ramp2 1:1, MRGPRX4 = 100) was 42.7283 and 40.01, the “response to agonist, X4:ramp2.I:2” value (Figure 4c-f, agonist 100µM, X4:ramp2 1:2, MRGPRX4 = 100) was 16.754 and 20.2407 and the “IP1 Basal” value [1] was 16.83. The IP1 span (Emax minus basal) [1] was 84.5%, the EC50 (MRGPRX4 + RAMP2 0.25 pg (Fig. S3), normalized per agonist, read-out: IP1 EC50) was 11.8 µM and the Emax [1] was 101%. For the same compound, the “IP1 Basal” value [2] was 13.85, the IP1 span (Emax minus basal) [2] was 55.7% and the Emax [2] was 69.5%. The EC50 (MRGPRX4 + RAMP2 0.5 pg (Fig. S3), normalized per agonist, read-out: IP1 logEC50 (converted)) was 6.68 µM, the “IP1 Basal” value [3] was 8.724 and the IP1 span (Emax minus basal) [3] was 37.8%. For the same compound, the Emax [3] was 46.5%, the EC50 (MRGPRX4 + RAMP2 1 pg (Fig. S3), normalized per agonist, read-out: IP1 logEC50 (converted)) was 9.29 µM and the “IP1 Basal” value [4] was 3.623. The IP1 span (Emax minus basal) [4] was 25.2%, the EC50 (MRGPRX4 + RAMP2 2 pg (Fig. S3), normalized per agonist, read-out: IP1 EC50) was 26.6 µM and the Emax [4] was 28.8%. For the same compound, the “IP1 Basal” value [5] was 7.610, the IP1 span (Emax minus basal) [5] was 68% and the EC50 (Tet-On MRGPRX4:RAMP2 Ratio 1:0.5 (Fig. S5E), read-out: IP1 EC50) was 8.76 µM. The Emax [5] was 75.6%, the “IP1 Basal” value [6] was 4.862 and the IP1 span (Emax minus basal) [6] was 63.1%. For the same compound, the EC50 (Tet-On MRGPRX4:RAMP2 Ratio 1:0.75 (Fig. S5E), read-out: IP1 EC50) was 10.5 µM, the Emax [6] was 67.9% and the EC50 (Tet-On MRGPRX4:RAMP2 Ratio 1:0.75 (Fig. S5E), read-out: IP1 logEC50 (converted)) was 10.5 µM. The “IP1 Basal” value [7] was 3.554, the IP1 span (Emax minus basal) [7] was 52.2% and the EC50 (Tet-On MRGPRX4:RAMP2 Ratio 1:1 (Fig. S5E), read-out: IP1 EC50) was 16.7 µM. The Emax [7] was 55.7%, the “IP1 accumulation (normalized)” value (log [nateglinide] (M) -4) was 49.0479 and 42.2633 and 46.2108 and the “IP1 accumulation (normalized)” value (log [nateglinide] (M) -4.69897) was 35.8073 and 28.8485 and 29.8595. For the same compound, the “IP1 accumulation (normalized)” value (log [nateglinide] (M) -5.39794) was 15.3369 and 12.9717 and 15.4367, the “IP1 accumulation (normalized)” value (log [nateglinide] (M) -6.09691) was 5.582 and 4.886 and 4.986 and the “IP1 accumulation (normalized)” value (log [nateglinide] (M) -6.79588) was 3.625 and 3.074 and 3.358. The “IP1 accumulation (normalized)” value (log [nateglinide] (M) -7.49485) was 3.035 and 3.588 and 4.695.
